Results as given in ChEMBL document CHEMBL1137458, “Discovery of novel and orally active NR2B-selective N-methyl-D-aspartate (NMDA) antagonists, pyridinol derivatives with reduced HERG binding affinity” (Bioorg Med Chem Lett, 2007).
Values after ≈ are worked out from the molar mass of the structure shown.

Experiments:
[1] = target: Glutamate receptor ionotropic, NMDA 2B (Rattus norvegicus, UniProt Q00960); assay: Displacement of [3H]CP-101606 from NR2B in rat forebrain P2 membrane; format: cell membranes, Brain
Chain of Glutamate receptor ionotropic, NMDA 2B (Q00960 whole entry): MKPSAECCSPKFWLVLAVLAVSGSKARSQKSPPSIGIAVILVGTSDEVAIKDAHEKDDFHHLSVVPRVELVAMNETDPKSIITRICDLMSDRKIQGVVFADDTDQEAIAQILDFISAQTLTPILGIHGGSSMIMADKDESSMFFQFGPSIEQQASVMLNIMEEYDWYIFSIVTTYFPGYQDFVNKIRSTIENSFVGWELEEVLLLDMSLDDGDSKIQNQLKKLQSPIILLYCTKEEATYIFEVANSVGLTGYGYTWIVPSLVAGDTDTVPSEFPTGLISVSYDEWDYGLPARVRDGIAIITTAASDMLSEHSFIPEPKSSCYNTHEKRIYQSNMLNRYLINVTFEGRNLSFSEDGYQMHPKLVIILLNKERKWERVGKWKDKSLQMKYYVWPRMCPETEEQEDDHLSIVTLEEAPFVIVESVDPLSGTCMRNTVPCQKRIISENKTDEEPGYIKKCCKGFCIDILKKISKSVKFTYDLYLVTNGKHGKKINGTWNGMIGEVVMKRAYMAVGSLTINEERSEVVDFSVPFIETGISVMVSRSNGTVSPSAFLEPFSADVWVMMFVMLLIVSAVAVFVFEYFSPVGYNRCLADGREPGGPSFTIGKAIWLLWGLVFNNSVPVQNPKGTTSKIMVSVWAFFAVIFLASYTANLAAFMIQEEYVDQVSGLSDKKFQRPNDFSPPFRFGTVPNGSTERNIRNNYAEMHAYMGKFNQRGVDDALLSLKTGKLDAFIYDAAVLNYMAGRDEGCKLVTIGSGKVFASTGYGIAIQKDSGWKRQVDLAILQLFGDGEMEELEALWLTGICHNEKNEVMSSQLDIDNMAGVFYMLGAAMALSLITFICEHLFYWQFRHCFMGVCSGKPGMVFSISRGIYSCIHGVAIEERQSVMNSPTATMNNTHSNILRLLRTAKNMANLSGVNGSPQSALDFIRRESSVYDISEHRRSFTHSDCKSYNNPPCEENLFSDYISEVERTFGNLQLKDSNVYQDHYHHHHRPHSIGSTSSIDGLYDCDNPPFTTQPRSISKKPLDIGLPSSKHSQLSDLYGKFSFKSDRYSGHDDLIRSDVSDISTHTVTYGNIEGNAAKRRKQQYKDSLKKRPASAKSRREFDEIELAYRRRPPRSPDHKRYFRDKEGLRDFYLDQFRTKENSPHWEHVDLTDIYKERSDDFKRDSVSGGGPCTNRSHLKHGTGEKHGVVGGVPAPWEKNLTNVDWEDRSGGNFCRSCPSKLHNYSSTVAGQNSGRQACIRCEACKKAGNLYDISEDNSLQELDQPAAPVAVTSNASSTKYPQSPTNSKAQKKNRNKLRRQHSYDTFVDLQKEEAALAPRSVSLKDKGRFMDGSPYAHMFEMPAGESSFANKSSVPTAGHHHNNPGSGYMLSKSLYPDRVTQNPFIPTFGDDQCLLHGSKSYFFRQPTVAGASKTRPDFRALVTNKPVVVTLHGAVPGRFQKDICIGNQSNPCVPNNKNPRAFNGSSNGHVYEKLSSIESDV

[2] = target: Voltage-gated inwardly rectifying potassium channel KCNH2 (Homo sapiens, UniProt Q12809); assay: Displacement of [3H]dofetilide from human HERG expressed in HEK293 cells; format: cell-based
Chain of Voltage-gated inwardly rectifying potassium channel KCNH2 (Q12809 whole entry): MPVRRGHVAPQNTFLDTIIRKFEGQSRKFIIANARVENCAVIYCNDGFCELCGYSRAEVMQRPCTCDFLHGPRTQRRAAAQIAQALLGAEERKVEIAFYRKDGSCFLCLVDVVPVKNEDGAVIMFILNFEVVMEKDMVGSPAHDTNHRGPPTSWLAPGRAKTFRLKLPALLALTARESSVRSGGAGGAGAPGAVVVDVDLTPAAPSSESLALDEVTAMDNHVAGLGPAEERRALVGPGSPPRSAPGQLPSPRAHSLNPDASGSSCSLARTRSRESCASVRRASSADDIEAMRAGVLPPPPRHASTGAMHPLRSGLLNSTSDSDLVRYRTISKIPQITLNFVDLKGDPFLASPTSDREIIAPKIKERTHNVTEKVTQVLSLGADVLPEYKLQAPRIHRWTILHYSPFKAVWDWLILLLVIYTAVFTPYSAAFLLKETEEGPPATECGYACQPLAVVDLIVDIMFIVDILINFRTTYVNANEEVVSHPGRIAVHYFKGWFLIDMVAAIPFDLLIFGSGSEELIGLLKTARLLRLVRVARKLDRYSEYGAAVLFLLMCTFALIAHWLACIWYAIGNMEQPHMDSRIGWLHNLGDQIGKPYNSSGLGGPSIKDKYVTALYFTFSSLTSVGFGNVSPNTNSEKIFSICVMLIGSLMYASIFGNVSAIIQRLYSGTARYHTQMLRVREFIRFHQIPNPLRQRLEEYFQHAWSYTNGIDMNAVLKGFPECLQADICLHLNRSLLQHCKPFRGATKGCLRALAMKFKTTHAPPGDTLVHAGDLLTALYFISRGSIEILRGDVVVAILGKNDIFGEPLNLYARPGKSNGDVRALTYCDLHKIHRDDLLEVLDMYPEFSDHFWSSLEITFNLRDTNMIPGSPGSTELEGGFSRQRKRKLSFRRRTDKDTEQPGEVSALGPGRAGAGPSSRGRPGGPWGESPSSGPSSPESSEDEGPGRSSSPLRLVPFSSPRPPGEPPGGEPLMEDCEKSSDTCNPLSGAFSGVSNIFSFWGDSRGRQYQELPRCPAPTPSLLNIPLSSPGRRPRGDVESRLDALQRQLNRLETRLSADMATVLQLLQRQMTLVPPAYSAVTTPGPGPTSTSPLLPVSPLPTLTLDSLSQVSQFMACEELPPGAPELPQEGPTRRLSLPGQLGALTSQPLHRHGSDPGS

[3] = Solubility at pH 6.5; format: physicochemical; details: buffer
Mus musculus = assay: Antiallodynic activity in po dosed mouse partial sciatic nerve ligation model; format: functional
[4] = Metabolic stability assessed Half life in human liver microsomes; format: ADME, Microsome
[5] = Bioavailability in mouse; format: ADME, organism-based; details: in vivo
hERG (KCNH2) = hERG (KCNH2) (Homo sapiens, UniProt Q12809); assay: Inhibition of HERG current at 30 uM
Chain of hERG (KCNH2) (Q12809 whole entry): as above

| SMILES | IC50 [1] [nM] | IC50 [2] [nM] | other results |
| --- | --- | --- | --- |
| Cc1cc(O)ccc1[C@]1(O)CC[C@@H](NC(=O)CCc2ccccc2)CC1 | 25 |  | IC50 ([2]; hek293): > 10000 nM |
| CN(C)C(Cc1ccccc1)C(=O)N[C@H]1CC[C@H](c2ccc(O)cc2)CC1 (stereo partly drawn) | > 1000 |  |  |
| Cn1c(CCC(=O)N[C@H]2CC[C@H](c3ccc(O)cc3)CC2)nc2ccccc21 | > 1000 |  |  |
| O=C(CCc1ccccc1)N[C@H]1CC[C@](O)(c2ccc(O)cn2)CC1 | 10 | > 30000 | solubility [3]: 130 µg/mL (≈ 382 µM); MED (Mus musculus): 10 mg/kg; half-life [4]: > 1 h; bioavailability [5]: 27%; inhibition at 30 µM (hERG (KCNH2)): 9% |
| O=C(CCc1ccccc1)N[C@H]1CC[C@](O)(c2ccc(O)cc2)CC1 | 19 | > 30000 | solubility [3]: 20 µg/mL (≈ 58.9 µM) |
| Cc1cc([C@]2(O)CC[C@@H](NC(=O)CCc3ccccc3)CC2)ncc1O | 116 |  |  |
| O=C(CCc1ccccn1)N[C@H]1CC[C@H](c2ccc(O)cc2)CC1 | 856 | > 30000 |  |
| O=C(CCc1cccnc1)N[C@H]1CC[C@H](c2ccc(O)cc2)CC1 | > 1000 |  |  |
| O=C(CCc1ccccc1)N[C@H]1CC[C@H](c2ccc(O)c(F)c2)CC1 | 59 |  | IC50 ([2]; hek293): > 10000 nM |
| O=C(N[C@H]1CC[C@H](c2ccc(O)cc2)CC1)C1Cc2ccccc2CN1 (stereo partly drawn) | > 1000 | > 30000 | solubility [3]: 18 µg/mL (≈ 51.4 µM) |
| O=C(CCc1ccccc1)N[C@H]1CC[C@](O)(c2c[nH]c3nc(=O)oc-3c2)CC1 | 85 |  |  |
| O=C(CCc1ccccc1)N[C@H]1CC[C@](O)(c2ccc3nc[nH]c3c2)CC1 | 4960 |  |  |
| Nc1ccc([C@]2(O)CC[C@@H](NC(=O)CCc3ccccc3)CC2)cn1 | > 5000 |  |  |
| O=C(CCc1ccccc1)N[C@H]1CC[C@](O)(c2c[nH]cn2)CC1 | > 5000 |  |  |
| O=C1CCc2cc([C@@H](O)CN3CCC(O)(c4cccc(F)c4)CC3)ccc2N1 |  | 1100 |  |
| O=C(CCc1ccccc1)N[C@H]1CC[C@](O)(c2cn[nH]c2)CC1 | 2440 |  |  |
| O=C1CC(Cc2ccccc2)CCN1CC(O)c1ccc(O)cc1 (stereo not drawn) |  | > 30000 |  |
| Cc1cc([C@]2(O)CC[C@@H](NC(=O)CCc3ccccc3)CC2)ccc1O | 189 |  | IC50 ([2]; hek293): > 10000 nM; solubility [3]: < 5 µg/mL |
| O=C(CCc1ccccc1)N[C@H]1CC[C@](O)(c2ccc(O)c(F)c2)CC1 | 13 |  | solubility [3]: 17 µg/mL (≈ 47.6 µM) |
| Cc1cc([C@H]2CC[C@H](NC(=O)CCc3ccccc3)CC2)ccc1O | > 5000 |  |  |
| Cc1cnc(CCC(=O)N[C@H]2CC[C@H](c3ccc(O)cc3)CC2)s1 | 96 | > 10000 |  |
| Cc1cc(O)ccc1[C@H]1CC[C@H](NC(=O)CCc2ccccc2)CC1 | 722 |  |  |
| C[C@@H]([C@@H](O)c1ccc(O)cc1)N1CCC(Cc2ccccc2)CC1 [(S)-IFENPRODIL] |  | < 1000 |  |
| O=C(CCc1ccccc1)N[C@H]1CC[C@H](c2ccc(O)cc2)CC1 | 30 |  | solubility [3]: < 5 µg/mL |
| CS(=O)(=O)Nc1ccc([C@]2(O)CC[C@@H](NC(=O)CCc3ccccc3)CC2)cn1 | > 5000 |  |  |
